Measured values from US20080063642A1, “Methods of using (+)-1,4-dihydro-7-[(3S,4S)-3-methoxy-4-(methylamino)-1-pyrrolidinyl]-4-oxo-1-(2-thiazolyl)-1,8-naphthyridine-3-carboxylic acid for treatment of certain hematologic disorders” (priority 2006, published 2008).
In brackets after ≈: the same amount, converted by molar mass. Read-outs that look alike come from different tables or passages of the source. Marks after values point to notes of the source that are not given here.

Columns and labels:
[1] = tested on: LM3-Jck human malignant lymphoma tumor; test: LM3-Jck xenograft model; assay type: in vivo; details: for IR (%) tumor inhibition rate: LM3-JcK, 21 days after start
Method: LM3-Jck human malignant lymphoma tumor lobes (2-3 mm square) were transplanted subcutaneously into nude mice. Tumors were allowed to grow to approximately 7-14 mm in diameter. […] Acceptable toxicity was defined as a mean group weight loss of 30% or less and not more than one toxic death among 6 treated animals. Anti-tumor activities of the drugs were assessed 21 days after the start of administration.

Jurkat (T cell leukemia) = test: MTT cell viability assay, Jurkat; assay type: cell-based; details: Homo sapiens, MTT after 72 hours
Method: (§1) The following cell lines were used in this assay: HL-60 (promyelocytic leukemia); Jurkat (T cell leukemia); CCRF-CEM (lymphoblastic leukemia); CEM/C2 (camptothecan resistant derivative of CCRF-CEM).
(§2) Cells were seeded in 96 wells plates at 3000 cells per well and incubated for 16 hours. Compound dilutions were performed in DMSO from 10 mM with 3 fold dilutions. Titrations were diluted 1:100 in media to achieve final compound concentrations. The 96 well plates were aspirated and compound dilutions in media were added ([…]). MTT analysis was carried out after 72 hours of incubation at 37° C. Briefly, […] of MTT solution was added to each well. Cells were incubated at 37° C. for 1-2 hours. Cells were lysed with the addition of […] cell lysis buffer and MTT was solubilized overnight at 37° C. Plates were read on a spectromax machine with an absorbance measurement at […]. IC50's were calculated (data provided in Table 1) using regression analysis within GraphPad Prism.

[2] = tested on: peripheral neutrophils, white blood cells, platelets; test: Combination dosing SNS-595 and Ara-C (Example 5): peripheral cytology; assay type: in vivo, nu/nu mice; details: mouse, in vivo
Method: At various time points described in Table 5, mice were euthanized by CO2 asphyxiation in accordance to Institutional Animal Care and Use Committee (IACUC) guidelines. Blood was collected through cardiac tap and transferred to EDTA tubes. The analysis of murine blood CBC and differential counts for samples in these tubes was conducted (at Quality Clinical Labs, Moutainview). Statistical significance was determined by one-tailed student t-test, using Welch's correction for unequal variances.

[3] = tested on: circulating neutrophils, WBCs, platelets; parameters: species or system Female CD-1 mice; details: mouse, in vivo
Method: (§3) Blood was drawn on days 6, 8, and 12 post initial injection for hematological analysis. Femurs were extracted on day 6 fixed in Streck and H&E stained prior to bone marrow cellularity analysis. […] At 20 mg/kg, cellularity was reduced to 7.5%, while circulating neutrophils were reduced from a pre-dose level of […] to a nadir of 51±24 cells/mL blood on day 8. Absolute neutrophil counts subsequently rebounded and soon returned to normal levels. Total WBCs also reached a nadir on day 8, but returned to normal levels.

[4] = tested on: CCRF-CEM (lymphoblastic leukemia); test: MTT cell viability assay, CCRF-CEM; assay type: cell-based; details: Homo sapiens, MTT after 72 hours
Method: as §1, §2

[5] = tested on: CCRF-CEM acute lymphoblastic leukemia tumor; test: CCRF-CEM xenograft model; assay type: in vivo; details: CCRF-CEM; 25 mg/kg q7d × 3, IV; 20 or 21 days after start
Method: CCRF-CEM acute lymphoblastic leukemia tumor lobes of 2-3 mm square were transplanted subcutaneously into nude mice. Tumors were allowed to grow to approximately 8-20 mm in diameter. […] Acceptable toxicity was defined as a mean group weight loss of 30% or less and not more than one toxic death among 6 treated animals. Anti-tumor activities of the drugs were assessed 20 or 21 days after the start of administration. FIGS. 1-2 and Table 2 provides data for tumor inhibition rate (IR) and survival ratio in the CCRF-CEM and LM3-Jck xenograft models.

bone marrow [6] = test: Bone marrow/cytology assay (Example 4): bone marrow cellularity; assay type: in vivo, Female CD-1 mice
Method: as §3

[7] = tested on: CEM/C2 (camptothecan resistant derivative of CCRF-CEM); test: MTT cell viability assay, CEM/C2; assay type: cell-based; details: Homo sapiens, MTT after 72 hours
Method: as §1, §2

bone marrow [8] = test: Monotherapy and combination with Ara-C (Example 6): bone marrow total cellularity; assay type: in vivo, Female CD-1 mice
Method: Blood was analyzed at Quality Control Labs (Mountain View, Calif.) for complete blood count and differential count. Bone marrow smears from femurs on Day 6 and Day 12 were prepared and geimsa stained for differential counts. Femurs were also placed in Streck fixative, processed, sectioned and H&E stained. Femur and bone marrow smears were analyzed at BioPathology Sciences (South San Francisco, Calif.) for total cellularity and differential count. […] The compounds were administered on Day 0 and Day 4.

[9] = CD-1 mouse model; q4d × 2
femoral bone marrow = test: Combination dosing SNS-595 and Ara-C (Example 5): femoral bone marrow cellularity; assay type: in vivo, nu/nu mice
From the text: Femurs were harvested for histological evaluation. The femur was placed in Streck fixative, paraffin embedded, sectioned, transferred to slides, and H&E stained (at BioPathology Sciences). Immunohistochemical slides were processed and analyzed for percent cellularity of intact bone marrow.

[10] = tested on: HL-60 (promyelocytic leukemia); test: MTT cell viability assay, HL-60; assay type: cell-based; details: Homo sapiens, MTT after 72 hours
Method: as §1, §2

[11] = mouse, in vivo, iv
Method: The effects of dosing were studied on changes in body weight, peripheral cytology, and femoral bone marrow cellularity over time as described below.
Before beginning the study, all animals were allowed to acclimatize for 3 days from shipping related stress and the health of the mice was assessed daily by observation. Purified water (reverse osmosis) and irradiated food (PicoLab Rodent Diet 20, #5053; Dean's Animal Feeds, San Carlos, Calif.) were provided ad libitum, and the animals were kept on a 12 hour light and dark cycle.

[12] = Bone marrow/cytology assay (Example 4): body weight loss; assay type: in vivo, Female CD-1 mice; details: all dose groups, 5-20 mg/kg
Method: as §3
FIGS. 5 and 6 show neutrophil and total white blood cell counts from blood samples on day 8 post initial injection. […] Body weight loss was tolerable across all dose groups.

[13] = tested on: myeloid cell lineages in bone marrow; test: Monotherapy and combination with Ara-C (Example 6): bone marrow smears, differential counts; assay type: in vivo, Female CD-1 mice; details: SNS-595 treated animals; Day 6
Method: Combination: […] Blood was analyzed at Quality Control Labs (Mountain View, Calif.) for complete blood count and differential count. Bone marrow smears from femurs on Day 6 and Day 12 were prepared and geimsa stained for differential counts. Femurs were also placed in Streck fixative, processed, sectioned and H&E stained. Femur and bone marrow smears were analyzed at BioPathology Sciences (South San Francisco, Calif.) for total cellularity and differential count.

[14] = Group 4: SNS-595 15 mg/kg IV q4d × 2

Q: Which “IR (%) tumor inhibition rate” value ([1]; 20 mg/kg q7d × 3, IV) does the source give for `CN[C@H]1CN(c2ccc3c(=O)c(C(=O)O)cn(-c4nccs4)c3n2)C[C@@H]1OC` [SNS-595, (+)-1,4-dihydro-7-[(3S,4S)-3-methoxy-4-(methylamino)-1-pyrrolidinyl]-4-oxo-1-(2-thiazolyl)-1,8-naphthyridine-3-carboxylic acid] here?
A: 98.9* %

Q: And the “IR (%) tumor inhibition rate” value ([1]; 25 mg/kg q7d × 3, IV)?
A: 98.5* %

Q: And the antitumor activity ([1]; LM-3 Jck malignant lymphoma, 20 and 25 mg/kg)?
A: complete tumor regressions

Q: And the IC50 (Jurkat (T cell leukemia))?
A: 0.023 µg/mL (≈ 0.0573 µM)

Q: What about the “circulating white blood cells, dose response” value [2] of the same compound?
A: dose-dependent reduction

Q: What about the “day by which neutrophils returned to normal levels” value [2] of the same compound?
A: ≤ 12 days

Q: What about the “day by which platelets returned to normal levels” value [2] of the same compound?
A: ≤ 12 days

Q: And the “number of neutrophils versus vehicle group” value [2]?
A: significantly lower than the vehicle group

Q: What about the “recovery of white blood cells” value [2] of the same compound?
A: failed to return to normal levels by day 18

Q: What about the “number of platelets versus vehicle group” value ([2]; 5 mg/kg) of the same compound?
A: not significantly decrease

Q: What about the “number of circulating white blood cells versus vehicle group” value ([2]; 10 mg/kg) of the same compound?
A: significantly lower than the vehicle group

Q: What about the “number of white blood cells versus vehicle group” value ([2]; 15 mg/kg) of the same compound?
A: significantly lower than the vehicle group

Q: What about the platelet response [3] of the same compound?
A: minor platelet response

Q: What about the “day of total WBC nadir” value ([3]; iv) of the same compound?
A: 8 days

Q: What about the IC50 [4] of the same compound?
A: 0.018 µg/mL (≈ 0.0448 µM)

Q: What about the “IR (%) tumor inhibition rate” value [5] of the same compound?
A: 98.1* %

Q: And the bone marrow cellularity (bone marrow [6]; 20 mg/kg IV Day 0 and Day 4, femurs day 6)?
A: 7.5%

Q: What about the “bone marrow at 12 days post initial injection” value (bone marrow [6]; 20 mg/kg, day 12) of the same compound?
A: bone marrow rebound

Q: And the “bone marrow cellularity, dose response” value (bone marrow [6]; 5, 10, 15, 20 mg/kg IV Day 0 and Day 4, two days after second administration)?
A: dose-dependent reduction in cellularity

Q: And the IC50 [7]?
A: 0.01 µg/mL (≈ 0.0249 µM)

Q: What about the “Total Cellularity (Avg) Exp #2” value (bone marrow [8]; SNS-595 10 mg/kg q4d × 2) of the same compound?
A: 54%

Q: What about the “Total Cellularity (Avg) Exp #1” value (bone marrow [8]; SNS-595 10 mg/kg q4d × 2, two days after completion of treatment, 10 mg/kg) of the same compound?
A: 56%

Q: And the “Total Cellularity (Avg) Exp #2” value (bone marrow [8]; SNS-595 20 mg/kg q4d × 2)?
A: 18%

Q: What about the “maximum tolerated dose (MTD)” value [9] of the same compound?
A: SNS-595 20 mg/kg q4d × 2*

Q: And the “total cellularity, femur cross section of representative animal” value (shortened to “total cellularity, femur cross section”) (femoral bone marrow; Day 6, SNS-595 5 mg/kg q4d ×2 IV, Animal #23)?
A: 60%

Q: And the “total cellularity, femur cross section” value (femoral bone marrow; Day 6, SNS-595 10 mg/kg q4d ×2 IV, Animal #44)?
A: 50%

Q: And the “total cellularity, femur cross section” value (femoral bone marrow; Day 6, SNS-595 15 mg/kg q4d ×2 IV, Animal #63)?
A: 20%

Q: What about the “total cellularity, femur cross section” value (femoral bone marrow; Day 12, SNS-595 15 mg/kg q4d ×2 IV, Animal #73) of the same compound?
A: 100%

Q: What about the “Average Total Cellularity Day 6” value (femoral bone marrow; Group 2: SNS-595 5 mg/kg IV q4d × 2) of the same compound?
A: 70%

Q: What about the “Average Total Cellularity Day 6” value (femoral bone marrow; Group 3: SNS-595 10 mg/kg IV q4d × 2) of the same compound?
A: 56%

Q: What about the “Average Total Cellularity Day 6” value (femoral bone marrow; [14]) of the same compound?
A: 26%

Q: What about the “Average Total Cellularity Day 12” value (femoral bone marrow; [14]) of the same compound?
A: 100%

Q: What about the reduction in cellularity (femoral bone marrow; SNS-595 10 mg/kg IV single agent) of the same compound?
A: 44%

Q: What about the “bone marrow cellularity, dose response” value (femoral bone marrow; SNS-595 single agent 5, 10, 15 mg/kg) of the same compound?
A: dose-dependent reduction in bone marrow cellularity

Q: And the IC50 [10]?
A: 0.053 µg/mL (≈ 0.132 µM)

Q: What about the “% of Body Wt Nadir” value ([11]; 5 mg/kg) of the same compound?
A: 0%

Q: And the “Day of Body Wt Nadir” value ([11]; 5 mg/kg)?
A: 0 days

Q: What about the “% of Body Wt Nadir” value ([11]; 10 mg/kg) of the same compound?
A: 0%

Q: And the “Day of Body Wt Nadir” value ([11]; 10 mg/kg)?
A: 0 days

Q: And the “% of Body Wt Nadir” value ([11]; 15 mg/kg)?
A: −2.8%

Q: And the “Day of Body Wt Nadir” value ([11]; 15 mg/kg)?
A: 7 days

Q: And the body weight loss [12]?
A: tolerable

Q: What about the “immature neutrophils in bone marrow smears” value [13] of the same compound?
A: significant increase
